This passage reports Ki and analgesic effect results from US6013809A, “Substituted heterocyclic benzocycloalkenes and the use thereof as substances having an analgesic effect” (Gruenenthal GmbH, priority 1997, dated 2000).

For assay [1], the target named is T1, δ-opiate receptor (Rattus norvegicus, UniProt P33533).
T1 construct: freshly prepared rat brain was homogenised in 50 mmoles/l Tris-HCl (pH 7.4); from tissue; host or cells: rat brain without cerebellum, pons and medulla oblongata, male Wistar rats; membrane homogenate
The assay can be described thus: δ-opiate receptor binding, displacement of (^3H)-2-D-Ala-deltorphin II on rat brain homogenates. The arrangement: species or system rat (male Wistar rats). As for the experimental part:
Investigations for determining the affinity of compounds of formula I according to the invention for the δ-opiate receptor, which is a crucial prerequisite for analgesic properties, were performed on […] homogenates (rat brain homogenates, without the cerebellum, pons and medulla oblongata, from male Wistar rats). Selected compounds of formula I were used for the detection of δ-opiate receptor properties.
For this purpose, freshly prepared rat brain was homogenised in 50 mmoles/l Tris-HCl (pH 7.4) whilst cooling in ice, and was centrifuged for 10 minutes at 5000 g. After decanting and discarding the supernatant liquor, and renewed take-up and homogenisation of the membrane sediment in 50 mmoles/l Tris-HCl (pH 7.4), the homogenate was subsequently centrifuged for 20 minutes at 20,000 g and 4° C. This washing step was repeated once more. Thereafter, the supernatant liquor was decanted and the membrane sediment was homogenised in cold 50 mmoles/l Tris-HCl, 20% glycerol (w/v), 0.01% bacitracin (w/v) (pH 7.4) and was frozen in aliquots until testing was performed.
For the receptor binding tests, the aliquots were thawed out and diluted 1:10 with the binding test buffer.
The buffer used in the binding test comprised 50 mmoles/l Tris-HCl, 5 mmoles/l MgCl (pH 7.4), supplemented with 0.1% (w/v) bovine serum albumin. […] (^3 H)-2-D-Ala-deltorphin II was used as the radioactive ligand. The proportion of non-specific binding was determined in the presence of 10 mmoles/l naloxon.
The compounds according to the invention were added to further batches in series of concentrations and the displacement of the radioactive ligand from its specific binding site was determined. The respective triple batches were incubated for 90 minutes at 37° C. and were subsequently harvested by means of filtration through glass fibre filters (GF/B) for the determination of the radioactive ligand bound to the membrane homogenate. The radioactivity of the glass fibre filter discs was measured in a β-counter after adding a scintillator.
The affinity of the compounds according to the invention for the δ-opiate receptor was calculated as the IC50 according to the law of mass action by means of nonlinear regression. The K values in Table 1 are given as the mean value±the standard deviation from three mutually independent tests.

The test system of assay [2] is cancer patients. The conditions noted are these: intrathecal, cancer patients on whom morphine no longer had an analgesic effect; cited from earlier work.
Setting [3] is: 90 minutes at 37° C., pH 7.4, mean value ± standard deviation from three independent tests, read-out: δ-opiate receptor binding Ki.
Setting [4] is: meaning of the second figure not stated, read-out: δ-opiate receptor binding Ki, second unlabelled figure printed behind the mean ± standard deviation.

Where a name gives a salt, the structure may show the parent alone. Read-outs that look alike come from different tables or passages of the source.

T1 sequence (P33533 whole entry): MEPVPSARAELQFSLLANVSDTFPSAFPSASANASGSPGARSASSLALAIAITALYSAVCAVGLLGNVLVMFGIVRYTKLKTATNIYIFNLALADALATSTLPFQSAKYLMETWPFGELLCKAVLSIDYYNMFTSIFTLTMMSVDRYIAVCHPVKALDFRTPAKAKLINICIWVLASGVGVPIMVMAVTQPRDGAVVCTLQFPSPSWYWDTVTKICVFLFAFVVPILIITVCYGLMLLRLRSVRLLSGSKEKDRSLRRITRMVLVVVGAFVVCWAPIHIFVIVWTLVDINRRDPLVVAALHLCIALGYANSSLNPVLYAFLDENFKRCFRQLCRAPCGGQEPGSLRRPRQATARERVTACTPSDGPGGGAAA

Take `CN(C)CC1=C(c2cccc(O)c2)c2ccccc2SC1` [Example 5, 3-(3-dimethylaminomethyl-2H-thiochromen-4-yl)-phenol hydrochloride]: in assay [1] (setting [3]), the Ki worked out at 68.2 ± 10.1 nM.
`CN(C)CC1=C(c2cccc(O)c2)c2cc(O)ccc2OC1(C)C` [Example 8, 3-dimethylaminomethyl-4-(3-hydroxy-phenyl)-2,2-di-methyl-2H-chromen-6-ol hydrochloride]: the Ki in assay [1] (setting [3]) was found to be 393 ± 46 nM.
As for `CN(C)CC1=C(c2cccc(O)c2)c2ccccc2OC1` [Example 7, 3-(3-dimethylaminomethyl-2H-chromen-4-yl)-phenol hydrochloride], the Ki in assay [1] (setting [3]) turned out to be 68.4 ± 8.4 nM.
In the case of `CN(C)CC1=C(c2cccc(O)c2)c2ccc3c(c2OC1)OCCO3` [Example 2d, 3-(7-dimethylaminomethyl-2,3-dihydro-6H-1,4,5,-trioxa-phenanthren-8-yl)-phenol hydrochloride], the Ki in assay [1] (setting [3]) amounted to 18.4 ± 1.6 nM.
Regarding `COc1ccc2c(c1)SCCC(CN(C)C)=C2c1cccc(O)c1` [Example 2h, 3-(4-dimethylaminomethyl-8-methoxy-2,3-dihydrobenzo[b]thiepin-5-yl)-phenolhydrochloride], the Ki came to 2.67 nM in assay [1] (setting [3]) and 1.76 nM in assay [1] (setting [4]).
As for “D-alanine^2 -D-leucine^5 enkeplialin [DADL]”, the analgesic effect entry in assay [2] is “long-lasting analgesic effect”.
Consider `CN(C)CC1=C(c2cccc(O)c2)c2ccccc2SCC1` [Example 1, 3-(4-dimethylaminomethyl-2,3-dihydro-benzo[b]thiepin-5-yl)-phenol hydrochloride], for which the Ki in assay [1] (setting [3]) amounted to 10.2 ± 4.5 nM.
For `CN(C)CC1=C(c2cccc(O)c2)c2ccc3ccccc3c2SC1` [Example 2c, 3-(2-dimethylaminomethyl-3H-4-thiaphenanthren-1-yl)-phenol hydrochloride], the Ki in assay [1] (setting [3]) stood at 137 ± 13 nM.
Take `COc1ccc2c(c1)OCCC(CN(C)C)=C2c1cccc(O)c1` [Example 2g, 3-(4-dimethylaminomethyl-8-methoxy-2,3-dihydrobenzo[b]oxepin-5-yl)-phenol hydrochloride]: the Ki in assay [1] (setting [3]) was found to be 6.19 nM; in assay [1] (setting [4]), 6.01 nM.
For `COc1ccc2c(c1)[S+]([O-])CCC(CN(C)C)=C2c1cccc(O)c1` (centres unmarked) [Example 9a, 3-(4-dimethylaminomethyl-8-methoxy-1-oxo-2,3-dihydro-1H-1-2-4-benzo[b]thiepin-5-yl)-phenol hydrochloride], the Ki in assay [1] (setting [3]) amounted to 1.75 nM.
As for `CN(C)CC1=C(c2cccc(O)c2)c2ccc3ccccc3c2OC1` [Example 2b, 3-(3-dimethylaminomethyl-2H-benzo[b]chromen-4-yl-phenol hydrochloride], the Ki in assay [1] (setting [3]) is 348 ± 65 nM.
Turning to `CN(C)CC1=C(c2cccc(O)c2)c2ccc(O)cc2SCC1` [Example 11b, 4-dimethylaminomethyl-5-(3-hydroxy-phenyl)-2,3-dihydro-benzo[b]thiepin-8-ol hydrochloride], the figures for the Ki in assay [1] (setting [3]) and in assay [1] (setting [4]) were 6.43 nM and 6.71 nM, respectively.
As to `CN(C)CC1=C(c2cccc(O)c2)c2ccccc2[S+]([O-])CC1` (racemic) [Example 3, 3-(4-dimethylaminomethyl-1-oxo-2,3-dihydro-1H-1λ^4-benzo[b]thiepin-5-yl)-phenol hydrochloride], the Ki in assay [1] (setting [3]) worked out at 2.1 ± 0.13 nM.
For the compound `CN(C)CC1=C(c2cccc(O)c2)c2ccccc2OCC1` [Example 2e, 3-(4-dimethylaminomethyl-2,3-dihydro-benzo[b]oxepin-5-yl)-phenol hydrochloride], in assay [1] (setting [3]), the Ki worked out at 8.5 ± 3 nM.
